{
  "source": "patent US20220402961A1",
  "about": "(BONTAC BIO-ENGINEERING(SHENZHEN) CO.,LTD, priority 2021, published 2022)",
  "conditions": "screened with a sieve (1.00 mm, No. 18), poured into glass graduated measuring cylinder, apparent volume",
  "procedure": "The tops were scraped flat. The apparent volumes were recorded. The bulk densities were calculated.",
  "data": [
    {"smiles": "NC(=O)c1ccc[n+]([C@@H]2O[C@H](COP(=O)([O-])O)[C@@H](O)[C@H]2O)c1", "note": "[Form 1, nicotinamide mononucleotide anhydrous crystal (form 1)]", "values": [
      {"measurement": "Bulk density", "value": 0.15, "unit": "g/mL"}
    ]}
  ]
}
